Results as given in patent publication US11628186B2, “Method and composition for the reduction of viral replication, duration and spread of the COVID-19 and the flu” (priority 2017, dated 2023).
Where two headings read alike, the source gives them in different places.

How the values were obtained:
[1] = tested on: patients with lung diseases including COPD; experiment: Comparison of inhaled salts of pyruvate, 5 ml of 0.5 mM solution (Table I)
Description: All previous studies using pyruvate to treat Allergic Rhinitis, Asthmatic and COPD patients used only the sodium salt form of pyruvic acid in saline. The drug products that were tested in the six Phase I/II clinical trial were differing concentrations of sodium pyruvate dissolved in 0.9% sodium chloride solution (Saline). These drug products contained 0.5 mM, 1.5 mM, or 5.0 mM of sodium pyruvate in physiological saline. They were administered to normal volunteers and COPD and asthmatics by inhalation therapy. […] Various sodium pyruvate solutions were evaluated in the lungs for their ability to enhance FEV1 values and reduce coughing, and lung tightness.
The amount of the salts delivered in the 5 ml's of the 0.5 mM pyruvate solutions were compared to the amounts of the salts in 5 ml's of human blood. […] When ethyl pyruvate reacts with oxygen radical like hydrogen peroxide, it is converted to ethane and alcohol and Co2 and acetate. Ethane and alcohol are lung irritants.
This formula can also be made by adding 3% calcium phosphate or dicalcium phosphate to the standard 0.5 mM to 30 mM sodium pyruvate saline solution see Table I.

[2] = tested on: patients with sinus & lung diseases including IPF and COPD; experiment: Salts of pyruvate as 20 mM nasal sprays (Table IX)
Excerpt: They never tested the individual salts for their ability to reduce inflammation or increase lung functions.

[3] = tested on: patients suffering from Parkinson; experiment: Inhaled pyruvate salts in Parkinson patients; type: in vivo, human; details: 1 mM solution in the calcium, phosphate, magnesium formula, inhaled every day for five weeks
[4] = tested on: patients with lung diseases including COPD; experiment: Comparison of inhaled salts of pyruvate, 5 ml of 5 mM solution (Table II)
tumors = experiment: Pre-inhalation of the formula before inhaled 3-bromopyruvate; type: in vivo, rats
Description: The problem with 3-bromopyruvate was its toxicity to normal lung cells. The formula needed to protect noncancerous cells from 3-bromopyruvate and to enhance its effect on tumors, was the addition of inhaled 20 mM solution of sodium pyruvate, calcium, phosphate, magnesium formula inhaled 1-2 hours prior to the inhalation of the 10 mg of 3-bromopyruvate. The investigators were given the sodium pyruvate with calcium, phosphate and magnesium formula and instructed to have the rats inhale the formula 1-2 hours prior the inhalation of the cancer drug. This approach reduced tumor sizes by 90% compared the 60% reduction with 3bromopyruvate by itself. The addition of dichloroacetate with 3-bromopyruvate to the sodium pyruvate with calcium, phosphate and magnesium formula was the best formula decreasing tumor loads by 95%, especially with the addition of magnesium bicarbonate that increased the PH to 7.9 to neutralize the lactic acid produced in tumors that enhance tumorigenesis.

[5] = tested on: human lung cancer cell line; details: cited from earlier work
lung tumors = details: cited from earlier work
[6] = Viable non-cancerous cells after incubation with anticancer drugs in various media (Table VIII); type: cell-based; set-up: viability: concentration or dose not given beside the values; details: non-cancerous cells (normal peripheral blood monocytes)
Description: Peripheral blood monocytes and U937 monocytic leukemia tumor cells were placed in sterile culture flasks and maintained in culture using Dulbecco's Minimal Essential Medium, with 10% fetal calf serum, supplemented with 2 mM glutamine and Pen/Strep. The cytotoxicity of the cytotoxic agent on the cells was analyzed by propidium iodide exclusion techniques and flow cytometric quantitation. Viability of the cells was quantified as the number of cells that excluded the vital dye trypan blue. Sodium pyruvate was dissolved in distilled water and the solution was adjusted to pH 7.4 with calcium, phosphate and magnesium. Solutions were sterile filtered. Stock solutions were prepared so that the vehicle would not be more than 1% of the total volume of the culture media. H-Thymidine Radiosotopic Incorporation Measurement of Cytotoxity. The membrane surfactant enhancers agents (sodium pyruvate and calcium, phosphate and magnesium), was examined for their ability to decrease the Cytotoxity of Doxorubicin to U937 monocytic leukemia cells and normal peripheral blood monocytes. […] Susceptibility studies were conducted to determine the optimal treatment time of the cells with the […] agents prior to treatment of the cells with the cytotoxic agent. The normal cells and U937 leukemic tumor cells were pretreated separately in “wash out” studies with the single agents alone, and in combination, at the optimal concentration described above for various time periods, washed with fresh medium to remove the agents, and treated with the cytotoxic agent. The co-culture of normal and U937 leukemic […] cells was treated essentially in the same manner except that the cells were not treated separately, but co-cultured. […] The cells were then placed in culture medium without the protective agents. […] Normal and U937 tumor cells were co-cultured and the Cytotoxity of Doxorubicin on the cells was determined by viability assays which examined the differential ability of the cytoprotective compositions alone, and in combinations, to protect the normal cells from the Cytotoxity of the chemotherapeutic agent. The cells were isolated and examined for morphological evidence of cytotoxicity or prevention of cytotoxicity. […] DNA synthesis studies using 3Hthymidine (1 uCi/well) were carried out 4 hours prior to termination of the experiment to determine the effect of the formulations on the proliferation of the cells as a measure of the prevention of cytotoxicity and the extent of Doxorubicin-induced cytotoxicity. Propidium iodide exclusion analysis was carried out for direct quantitation of the cytotoxicity and the prevention of cytotoxicity. Each set of studies was performed in triplicate so that statistical analysis of the significant differences between the treatment groups could be conducted. […] Wash-out studies were conducted to determine viability of the peripheral blood monocytes co-cultured with U937 monocytic leukemia cells after 24 hour pretreatment of the cells with the surfactant enhancer, which is also a mitochondrial protective agent, followed by administration of Doxorubicin.

[7] = tested on: porcine respiratory coronavirus (PRCV); experiment: Antiviral assay with NO donor in swine testicular (ST) cells; type: cell-based; details: NO donor SNAP
Description: We examined NO levels by Greiss assay in bronchoalveolar lavage (BAL) of pigs infected with either porcine respiratory coronavirus (PRCV). The antiviral effects of NO on this virus was tested in an in vitro system using a NO donor, S-nitroso-N-acetyl penicillamine (SNAP). We detected a large increase in NO levels in BAL fluids of PRCV-infected pigs. Pulmonary epithelial cell necrosis induced by PRCV coincided with increased NO. […] NO plays a role in innate immunity to respiratory CoV infections by inhibiting viral replication.

SARS CoV = type: cell-based
[8] = tested on: Patients with a severe case of CIVID-19 infection; type: in vivo, human; details: 5 patients treated with just the gas
[9] = 1 atm, cited from earlier work
[10] = 5 ml of 0.5 mM solution, inhaled
[11] = aerosol, 10 mg/5 mL by inhalation, 8 weeks

## CC(=O)C(=O)[O-].[Li+] [Lithium, lithium pyruvate]
[1]; 5 ml of 0.5 mM solution in physiological saline, inhaled
  Increased in FEV-1% lung function: 1.0%
[1]; [10]
  Irritation: Yes
  Percentage Increase in SaO2 over baseline: No
  Percentage decrease or increase of Nitric Oxide over baseline: +6.0%
  Relief of congestion, coughing and lung tightness: 2
[1]; 5 ml of 0.5 mM solution, 1 most negative, 10 best
  Overall Rating 1-10: 2
[1]; 5 mls of a 0.5 mM inhalation solution
  reduction of nitric oxide: did not reduce nitric oxide
[1]; evaluated in the nasal cavities
  irritation in the nasal cavities compared with the lungs: even more irritating
[1]; inhaled
  bronchial dilator effect: acting as a bronchial dilator
[1]; inhaled into the lungs
  Irritation: irritating
[2]; 20 mM (0.22%) nasal spray, 1 most negative, 10 best
  Overall Rating 1-10: 2
[2]; in vivo
  Increased in FEV-1%: 0.0%
  Irritation: Yes
  Percentage Increase in SaO2 over baseline: No
  Percentage increase of Nitric Oxide over baseline: 00.0%
  Relief of congestion, coughing and lung tightness: 2
[3]
  shaking: substantially reduced
[4]; 5 ml of 5 mM solution in saline, inhaled
  Increased in FEV-1%: 1.0%
[4]; 5 ml of 5 mM solution, inhaled
  Irritation: Yes
  Percentage Increase in SaO2 over baseline: No
  Percentage increase of Nitric Oxide over baseline: 28.0%
  Relief of congestion, coughing and lung tightness: 2
[4]; 5 ml of 5 mM solution, 1 most negative, 10 best
  Overall Rating 1-10: 2

## O=C(O)C(=O)CBr [3-bromopyruvate]
tumors; 20 mM sodium pyruvate, calcium, phosphate, magnesium formula inhaled 1-2 hours prior to 10 mg of 3-bromopyruvate
  reduced tumor sizes: 90%
tumors; by itself
  reduction of tumor sizes: 60%
[5]
  apoptosis: induced apoptosis through caspase-3, and PARP
Lung tumors; [11]
  decreased tumor load: 60%
  decreased tumor multiplicity: 40%
Lung tumors; aerosolized
  liver toxicity: did not accompany any liver toxicity

## CC(C)(C#N)c1cc(Cn2cncn2)cc(C(C)(C)C#N)c1 [anastrozole]
[6]; Drugs in commercial formula with sodium chloride only, read-out: Percentage of viable non-cancerous cells
  viability: 25%
[6]; Drugs in commercial formula with sodium pyruvate with calcium & phosphate & Magnesium ions repeat study, read-out: Percentage of viable non-cancerous cells
  viability: 94%
[6]; Drugs in commercial formula with sodium pyruvate with calcium & phosphate & magnesium ions, read-out: Percentage of viable non-cancerous cells
  viability: 86%
[6]; Drugs in commercial formula with sodium pyruvate without calcium & phosphate & magnesium, read-out: Percentage of viable non-cancerous cells
  viability: 50%
[6]; drug alone, read-out: Percentage of viable cells after incubation with drugs
  viability: 24%

## [N]=O [nitric oxide]
[7]
  PRCV replication: significantly inhibited PRCV replication
SARS CoV
  replication cycle of SARS CoV: specifically inhibits the replication cycle of SARS CoV
[8]
  lung surfactants and lung fibrosis: did not increase lung surfactants or reduce lung fibrosis
[9]; 20° C.
  solubility in water: 4.6 ml/100 ml
[9]; 60° C.
  solubility in water: 2.37 ml/100 ml
